Measurements taken from ChEMBL document CHEMBL3885861, “Open TG-GATES”.

Species: Rattus norvegicus
Assay: Open TG-GATES - Regimen: Single
Assay type: toxicity, organism-based, Sprague-Dawley
Set-up: regimen Single, gender Male, age 6 weeks
Conditions: in vivo, po, 0 mg/kg, route gavage, dose level Control; for APTT / Bas / Eos / Fbg / Hb / Ht / Lym / MCH / MCHC / MCV / Mono / Neu / PT / Plat / RBC / Ret / WBC: tissue Blood; for KIDNEY_L / KIDNEY_R / KIDNEY_TOTAL: tissue Kidney; for LIVER: tissue Liver; for A/G / ALP / ALT / AST / BUN / CRE / Ca / Cl / DBIL / GLC / IP / K / LDH / Na / PL / RALB / TBIL / TC / TG / TP / gamma-GTP: tissue Plasma

`O=C(OC[C@H]1O[C@@H](OC(=O)c2cc(O)c(O)c(OC(=O)c3cc(O)c(O)c(O)c3)c2)[C@H](OC(=O)c2cc(O)c(O)c(OC(=O)c3cc(O)c(O)c(O)c3)c2)[C@@H](OC(=O)c2cc(O)c(O)c(OC(=O)c3cc(O)c(O)c(O)c3)c2)[C@@H]1OC(=O)c1cc(O)c(O)c(OC(=O)c2cc(O)c(O)c(O)c2)c1)c1cc(O)c(O)c(OC(=O)c2cc(O)c(O)c(O)c2)c1` [TANNIC ACID] showed a TERMINAL_BW (3 h) of 189.9 g, an APTT (3 h) of 16.1 s and a Bas (3 h) of 0%. For the same compound, the Eos (3 h) was 0.6%, the Fbg (3 h) was 216.2 mg/dL and the Hb (3 h) was 12.9 g/dL. For the same compound, the Ht (3 h) was 38.5%, the Lym (3 h) was 79.4% and the MCH (3 h) was 22.6 pg. For the same compound, the MCHC (3 h) was 33.6%, the MCV (3 h) was 67.3 fL and the Mono (3 h) was 5%. For the same compound, the Neu (3 h) was 15.2%, the PT (3 h) was 11.7 s and the Plat (3 h) was 106.7 x10_4/uL. It also gave an RBC (3 h) of 573 x10_4/ul, a Ret (3 h) of 10.3% and a WBC (3 h) of 111 x10_2/uL. The KIDNEY_L (3 h) was 0.9 g, the KIDNEY_R (3 h) was 0.9 g and the KIDNEY_TOTAL (3 h) was 1.8 g. For the same compound, the LIVER (3 h) was 9.5 g, the A/G (3 h) was 2.1 and the ALP (3 h) was 747.6 IU/L. For the same compound, the ALT (3 h) was 34.4 IU/L, the AST (3 h) was 68 IU/L and the BUN (3 h) was 17 mg/dL. The CRE (3 h) was 0.4 mg/dL, the Ca (3 h) was 11 mg/dL and the Cl (3 h) was 103.2 meq/L. It also gave a DBIL (3 h) of 0.016 mg/dL, a GLC (3 h) of 194.4 mg/dL and an IP (3 h) of 10.3 mg/dL. The K (3 h) was 4.8 meq/L, the LDH (3 h) was 74.4 IU/L and the Na (3 h) was 139.4 meq/L. It also gave a PL (3 h) of 141.4 mg/dL, an RALB (3 h) of 3.6 g/dL and a TBIL (3 h) of 0.5 mg/dL. For the same compound, the TC (3 h) was 74.8 mg/dL, the TG (3 h) was 70.6 mg/dL and the TP (3 h) was 5.4 g/dL. It also gave a gamma-GTP (3 h) of 1.4 IU/L, a TERMINAL_BW (6 h) of 186.3 g and an APTT (6 h) of 15.9 s. The Bas (6 h) was 0%, the Eos (6 h) was 0.8% and the Fbg (6 h) was 227 mg/dL. For the same compound, the Hb (6 h) was 13.1 g/dL, the Ht (6 h) was 39.1% and the Lym (6 h) was 75.2%. It also gave an MCH (6 h) of 22.1 pg, an MCHC (6 h) of 33.6% and an MCV (6 h) of 65.6 fL. It also gave a Mono (6 h) of 7.8%, a Neu (6 h) of 16.4% and a PT (6 h) of 12.1 s. It also gave a Plat (6 h) of 117.4 x10_4/uL, an RBC (6 h) of 596 x10_4/ul and a Ret (6 h) of 10.1%. For the same compound, the WBC (6 h) was 109.6 x10_2/uL, the KIDNEY_L (6 h) was 0.9 g and the KIDNEY_R (6 h) was 0.9 g. It also gave a KIDNEY_TOTAL (6 h) of 1.8 g, an LIVER (6 h) of 8.6 g and an A/G (6 h) of 2. For the same compound, the ALP (6 h) was 831.4 IU/L, the ALT (6 h) was 34.4 IU/L and the AST (6 h) was 61.8 IU/L. The BUN (6 h) was 11.2 mg/dL, the CRE (6 h) was 0.5 mg/dL and the Ca (6 h) was 10.8 mg/dL. For the same compound, the Cl (6 h) was 105.2 meq/L, the DBIL (6 h) was 0.028 mg/dL and the GLC (6 h) was 188 mg/dL. For the same compound, the IP (6 h) was 10.1 mg/dL, the K (6 h) was 4.7 meq/L and the LDH (6 h) was 83 IU/L. It also gave a Na (6 h) of 139.4 meq/L, a PL (6 h) of 131.8 mg/dL and an RALB (6 h) of 3.6 g/dL. It also gave a TBIL (6 h) of 0.4 mg/dL, a TC (6 h) of 79.2 mg/dL and a TG (6 h) of 40.6 mg/dL. The TP (6 h) was 5.4 g/dL, the gamma-GTP (6 h) was 2.2 IU/L and the TERMINAL_BW (9 h) was 184.6 g. The APTT (9 h) was 16.7 s, the Bas (9 h) was 0% and the Eos (9 h) was 1.2%. For the same compound, the Fbg (9 h) was 213 mg/dL, the Hb (9 h) was 12.9 g/dL and the Ht (9 h) was 38.4%. For the same compound, the Lym (9 h) was 76.8%, the MCH (9 h) was 22.2 pg and the MCHC (9 h) was 33.6%. The MCV (9 h) was 65.9 fL, the Mono (9 h) was 8% and the Neu (9 h) was 14.4%. It also gave a PT (9 h) of 12.1 s, a Plat (9 h) of 123.3 x10_4/uL and an RBC (9 h) of 583.4 x10_4/ul. It also gave a Ret (9 h) of 10.2%, a WBC (9 h) of 92.1 x10_2/uL and a KIDNEY_L (9 h) of 0.9 g. For the same compound, the KIDNEY_R (9 h) was 0.9 g, the KIDNEY_TOTAL (9 h) was 1.7 g and the LIVER (9 h) was 7.7 g. The A/G (9 h) was 1.9, the ALP (9 h) was 669.8 IU/L and the ALT (9 h) was 34.4 IU/L. For the same compound, the AST (9 h) was 60 IU/L, the BUN (9 h) was 12.8 mg/dL and the CRE (9 h) was 0.4 mg/dL. For the same compound, the Ca (9 h) was 10.5 mg/dL, the Cl (9 h) was 105.4 meq/L and the DBIL (9 h) was 0.062 mg/dL. It also gave a GLC (9 h) of 195.8 mg/dL, an IP (9 h) of 10.8 mg/dL and a K (9 h) of 4.9 meq/L. For the same compound, the LDH (9 h) was 72.2 IU/L, the Na (9 h) was 137 meq/L and the PL (9 h) was 138.6 mg/dL. The RALB (9 h) was 3.6 g/dL, the TBIL (9 h) was 0.4 mg/dL and the TC (9 h) was 81.4 mg/dL. It also gave a TG (9 h) of 35.2 mg/dL, a TP (9 h) of 5.5 g/dL and a gamma-GTP (9 h) of 2.6 IU/L. It also gave a TERMINAL_BW (24 h) of 197.9 g, an APTT (24 h) of 16.7 s and a Bas (24 h) of 0%. For the same compound, the Eos (24 h) was 1.2%, the Fbg (24 h) was 218.4 mg/dL and the Hb (24 h) was 12.5 g/dL. For the same compound, the Ht (24 h) was 37.6%, the Lym (24 h) was 79.6% and the MCH (24 h) was 22 pg. For the same compound, the MCHC (24 h) was 33.3%, the MCV (24 h) was 66.1 fL and the Mono (24 h) was 6%. For the same compound, the Neu (24 h) was 13.6%, the PT (24 h) was 11.8 s and the Plat (24 h) was 110.9 x10_4/uL. The RBC (24 h) was 568.6 x10_4/ul, the Ret (24 h) was 9.9% and the WBC (24 h) was 98.7 x10_2/uL. The KIDNEY_L (24 h) was 0.9 g, the KIDNEY_R (24 h) was 0.9 g and the KIDNEY_TOTAL (24 h) was 1.8 g. For the same compound, the LIVER (24 h) was 9.4 g, the A/G (24 h) was 2.1 and the ALP (24 h) was 821.8 IU/L. For the same compound, the ALT (24 h) was 41 IU/L, the AST (24 h) was 66.6 IU/L and the BUN (24 h) was 18.2 mg/dL. For the same compound, the CRE (24 h) was 0.5 mg/dL, the Ca (24 h) was 10.8 mg/dL and the Cl (24 h) was 103.8 meq/L. For the same compound, the DBIL (24 h) was 0.004 mg/dL, the GLC (24 h) was 190.6 mg/dL and the IP (24 h) was 8.7 mg/dL. It also gave a K (24 h) of 4.7 meq/L, an LDH (24 h) of 97 IU/L and a Na (24 h) of 138.2 meq/L. For the same compound, the PL (24 h) was 144.2 mg/dL, the RALB (24 h) was 3.7 g/dL and the TBIL (24 h) was 0.4 mg/dL. For the same compound, the TC (24 h) was 80.6 mg/dL, the TG (24 h) was 77.2 mg/dL and the TP (24 h) was 5.5 g/dL. It also gave a gamma-GTP (24 h) of 1.4 IU/L.
